# Measurements taken from patent US20120245121A1, “METHODS FOR IMPROVING BONE HEALTH IN INFANTS USING LONG CHAIN POLYUNSATURATED FATTY ACIDS” (ABBOTT LABORATORIES, priority 2011, published 2012).
# Tests used:
# Format in all cases: in vivo, Sprague-Dawley rats
# rat offspring [1] = experiment: Micro-CT trabecular architecture and bone length of rat offspring after maternal diet supplementation
# Method: Fifty 10-week-old pregnant Sprague-Dawley rats at the eleventh day of gestation (Charles Rivers Laboratories, Orleans Cedex, France) are housed under standardized environmental conditions (22° C., relative humidity of 50%, artificial lighting on for 12 hours/day) and are given free access to deionized water during the test period. The rats are randomly divided into five groups of feeding (n=10/group): (1) Control Group (“Control”), who receives a standard purified rodent diet (SPRD); […] (3) Prebiotic group (“Prebiotic”), who receives the SPRD containing 7.5% of the total carbohydrate as inulin-type fructans (Synergy-1®, Orafti, Belgium); […] During their suckling period, the pups receive only the dam's milk. […] Sacrifices of rat pups are carried out at birth, weaning and at the end of the adolescence period. The whole bone mineral density (BMD) and bone mineral content (BMC) of the skeleton are measured at birth and at weaning by using a pDEXA densitometer (Norland Corp., Fort Atkinson, Wis., USA). In adolescent offspring, the determination of BMC and BMD are analyzed in isolated bones (femur, tibia and vertebrae). Determination of the trabecular architecture parameters (trabecular thickness, separation and number), bone length and bone volume fraction (BV/TV) is analyzed by Micro-computed tomography (micro-CT). Micro-CT analysis is carried out by the Bone & Joint Research Group (University of Southampton, UK) and cortical parameters are performed by SCANCO Medical AG (Brüttisellen, Switzerland). Micro-computed tomography (micro-CT) is a technique for the nondestructive assessment and analysis of the three-dimensional trabecular and cortical bone structural properties. Scanning with micro-CT can be achieved at resolutions as low as 5 μm, allowing for the determination of porosities and subtle modeling and remodeling events of the bone tissue. Furthermore, true three-dimensional image reconstructions permit the assessment of bone microarchitecture as a three dimensional structure, providing critical information to images collected through histomorphometry. In the present Example, femoral, tibia and vertebra cancellous bones are assessed using Metris (XTek) Benchtop 160Xi CT scanner (University of Southampton) and vertebra cortical bone is assessed using MicroCT-40 computed tomography system (Scanco Medical, Basserdorf, Switzerland). […] Results are expressed as mean±SEM, and the probability level at which the differences are considered significant is set at p<0.05. One-way ANOVA is used to evaluate differences attributable to the diet in the different markers, previously testing the homogeneity of variances by Levene's. A posteriori post hoc tests are carried out by the Dunnet test.
# rat offspring [2] = experiment: Micro-CT vertebra cortical architecture of rat offspring after maternal diet supplementation; conditions: adolescence
# Method: Fifty 10-week-old pregnant Sprague-Dawley rats at the eleventh day of gestation (Charles Rivers Laboratories, Orleans Cedex, France) are housed under standardized environmental conditions (22° C., relative humidity of 50%, artificial lighting on for 12 hours/day) and are given free access to deionized water during the test period. The rats are randomly divided into five groups of feeding (n=10/group): (1) Control Group (“Control”), who receives a standard purified rodent diet (SPRD); […] (3) Prebiotic group (“Prebiotic”), who receives the SPRD containing 7.5% of the total carbohydrate as inulin-type fructans (Synergy-1®, Orafti, Belgium); […] During their suckling period, the pups receive only the dam's milk. […] Sacrifices of rat pups are carried out at birth, weaning and at the end of the adolescence period. The whole bone mineral density (BMD) and bone mineral content (BMC) of the skeleton are measured at birth and at weaning by using a pDEXA densitometer (Norland Corp., Fort Atkinson, Wis., USA). In adolescent offspring, the determination of BMC and BMD are analyzed in isolated bones (femur, tibia and vertebrae). Determination of the trabecular architecture parameters (trabecular thickness, separation and number), bone length and bone volume fraction (BV/TV) is analyzed by Micro-computed tomography (micro-CT). Micro-CT analysis is carried out by the Bone & Joint Research Group (University of Southampton, UK) and cortical parameters are performed by SCANCO Medical AG (Brüttisellen, Switzerland). In the present Example, femoral, tibia and vertebra cancellous bones are assessed using Metris (XTek) Benchtop 160Xi CT scanner (University of Southampton) and vertebra cortical bone is assessed using MicroCT-40 computed tomography system (Scanco Medical, Basserdorf, Switzerland). […] Micro-CT analysis also allows for the determination of various quality properties of the cortical bone. The bone fragility is influenced not only by the architecture but also by the tissue “quality”. The strength of a bone as an organ depends on the material properties of bone as a tissue. Stiffness, or the resistance of the whole bone to deformation by a load, is a key material property and requires a destructive mechanical technique if measurements are done in vivo. The non-destructive analysis of the volumetric bone mineral density of cortical bone (cortical vBMD) by micro CT has an approximately linear relationship with the stiffness of the cortical bone. Cortical thickness (C.Th) is one of the variables that helps to evaluate the modeling-derived changes provoked by growth. The cortical porosity (C.Sp) reflects the intracortical remodeling in the bone. […] Results are expressed as mean±SEM, and the probability level at which the differences are considered significant is set at p<0.05. […]
# rat offspring [3] = experiment: pDEXA bone mineral density (BMD) and bone mineral content (BMC) of rat offspring after maternal diet supplementation; conditions: for lumbar vertebra BMC with respect to Control group / lumbar vertebra BMD with respect to Control group: adolescence
# Method: Fifty 10-week-old pregnant Sprague-Dawley rats at the eleventh day of gestation (Charles Rivers Laboratories, Orleans Cedex, France) are housed under standardized environmental conditions (22° C., relative humidity of 50%, artificial lighting on for 12 hours/day) and are given free access to deionized water during the test period. The rats are randomly divided into five groups of feeding (n=10/group): (1) Control Group (“Control”), who receives a standard purified rodent diet (SPRD); […] (3) Prebiotic group (“Prebiotic”), who receives the SPRD containing 7.5% of the total carbohydrate as inulin-type fructans (Synergy-1®, Orafti, Belgium); […] During their suckling period, the pups receive only the dam's milk. […] Sacrifices of rat pups are carried out at birth, weaning and at the end of the adolescence period. The whole bone mineral density (BMD) and bone mineral content (BMC) of the skeleton are measured at birth and at weaning by using a pDEXA densitometer (Norland Corp., Fort Atkinson, Wis., USA). In adolescent offspring, the determination of BMC and BMD are analyzed in isolated bones (femur, tibia and vertebrae). Determination of the trabecular architecture parameters (trabecular thickness, separation and number), bone length and bone volume fraction (BV/TV) is analyzed by Micro-computed tomography (micro-CT). Micro-CT analysis is carried out by the Bone & Joint Research Group (University of Southampton, UK) and cortical parameters are performed by SCANCO Medical AG (Brüttisellen, Switzerland). DEXA scan is a technique used in the clinical practice for the analysis of bone health. Two main bone properties can be measured by this technique: Bone Mineral Content (BMC) and areal Bone Mineral Density (BMD). BMC determines the mass of mineral present in the whole body or in the selected skeletal region. BMC changes reflect the result of the metabolic “mass” balance between bone formation and bone destruction. BMC represented relative to the projected bone area refers to BMD. […] The manufacturer's software for research in small animals calculates BMC and BMD for the isolated bone. Femur is measured from the femoral neck to the knee joint. Tibia is measured from the knee joint to the joint between tibia and calcaneus, also including fibula. […] Results are expressed as mean±SEM, and the probability level at which the differences are considered significant is set at p<0.05. One-way ANOVA is used to evaluate differences attributable to the diet in the different markers, previously testing the homogeneity of variances by Levene's. A posteriori post hoc tests are carried out by the Dunnet test.
# [4] = at delivery, appendicular bones
Molecule,vertebra BV/TV enhanced in comparison with Control group (rat offspring [1]; adolescence) [%],vertebra trabecular separation respective to Control group (rat offspring [1]; adolescence),vertebra trabecular thickness enhanced in comparison with Control group (rat offspring [1]; adolescence) [%],trabecular number of femur and tibia vs Control group (rat offspring [1]; [4]),trabecular thickness of femur and tibia vs Control group (rat offspring [1]; [4]),"femur length represented versus body weight (rat offspring [1]; at delivery, no difference to Control group)","trabecular separation of femur and tibia vs Control group (rat offspring [1]; at delivery, statistical differences not achieved)",increase in vertebra trabecular thickness respective to Control group (rat offspring [1]; at weaning) [%],vertebra BV/TV ratio respective to Control group (rat offspring [1]; at weaning),vertebra trabecular separation respective to Control group (rat offspring [1]; at weaning),vertebra cortical porosity (rat offspring [2]),vertebra cortical vBMD (rat offspring [2]),vertebrae cortical thickness (rat offspring [2]),lumbar vertebra BMC with respect to Control group (rat offspring [3]),lumbar vertebra BMD with respect to Control group (rat offspring [3]),"vertebra structural parameters (BV/TV, trabecular thickness) (rat offspring [1]; adolescence)",vertebra cortical features (rat offspring [2]),whole body BMC relative to Control group (rat offspring [3]; at weaning)
"O=C([O-])[O-].[Ca+2] [Calcium, calcium carbonate]",22,significant decrease,17,greater,lower,0.572±0.04,decrease,~30,statistically different,statistically different,decrease,increase,without significantly affecting,no differences,no differences,,,
Vitamin D,,,,,,,,,,,,,,no differences,no differences,No effect,does not show any improvement,lower
